Target: T1, Human TREX1 enzyme (amino acids 1-242) (Homo sapiens, UniProt Q9NSU2)
T1 construct: Human TREX1 enzyme (amino acids 1-242)
T1 sequence (Q9NSU2 1-242): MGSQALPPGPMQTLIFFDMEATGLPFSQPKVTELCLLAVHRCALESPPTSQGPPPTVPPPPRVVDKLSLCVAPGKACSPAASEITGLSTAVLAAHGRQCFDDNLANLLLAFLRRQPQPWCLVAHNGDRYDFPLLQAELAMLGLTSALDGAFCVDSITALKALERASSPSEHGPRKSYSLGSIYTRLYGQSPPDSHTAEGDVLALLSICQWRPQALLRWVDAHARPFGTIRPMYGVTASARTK
Assay: Human TREX1 enzymatic assay with dsDNA native oligonucleotide (Picogreen fluorescence)
Format: biochemical
Details: 2 mM dithiothreitol in assay buffer; 50 nM dsDNA oligonucleotide; 30 min preincubation at 25° C.; read-out: TREX1/Human + DTT IC50 AVG
How it was run: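 TREX1 (0.8–0.16 nM final) preincubated with compound (300 μM–13 nM or 30 μM–1.5 nM, 2% DMSO) 30 min at 25 °C in Tris pH 7.7, 5 mM MgCl2, 2 mM DTT. Annealed dsDNA (50 nM) added for 5–15 min at 25 °C; EDTA quench with Picogreen fluorescence readout.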

Compound | IC50
COc1cc(-c2nc3cc(N4CCN(C(=O)c5ccccc5Cl)CC4)ccc3[nH]2)cc(O)c1O [Example 111, (2-chlorophenyl)(4-(2-(3,4-dihydroxy-5-methoxyphenyl)-1H-benzo[d]imidazol-5-yl)piperazin-1-yl)methanone] | 1 to 10 µM
COc1cc(-c2nc3cc(N4CCN(C(=O)c5ccc(-c6ccccc6)cc5)CC4)ccc3[nH]2)cc(O)c1O [Example 112, [1,1′-biphenyl]-4-yl(4-(2-(3,4-dihydroxy-5-methoxyphenyl)-1H-benzo[d]imidazol-5-yl)piperazin-1-yl)methanone] | > 100 µM
COc1cc(-c2nc3cc(N4CCN(C(=O)c5cccc(-c6ccccc6)c5)CC4)ccc3[nH]2)cc(O)c1O [Example 113, [1,1′-biphenyl]-3-yl(4-(2-(3,4-dihydroxy-5-methoxyphenyl)-1H-benzo[d]imidazol-5-yl)piperazin-1-yl)methanone] | > 100 µM
COc1cc(-c2nc3cc(N4CCN(S(=O)(=O)C(C)C)CC4)ccc3[nH]2)cc(O)c1O [Example 116, 5-(5-(4-(isopropylsulfonyl)piperazin-1-yl)-1H-benzo[d]imidazol-2-yl)-3-methoxybenzene-1,2-diol] | 1 to 10 µM
COc1cc(-c2nc3cc(N4CCN(C)C(C)(C)C4)ccc3[nH]2)cc(O)c1O [Example 121, 3-methoxy-5-(5-(3,3,4-trimethylpiperazin-1-yl)-1H-benzo[d]imidazol-2-yl)benzene-1,2-diol] | > 100 µM
COc1cc(-c2nc3cc(N4CC5(CN(CC(F)(F)F)C5)C4)ccc3[nH]2)cc(O)c1O [Example 122, 3-methoxy-5-(5-(6-(2,2,2-trifluoroethyl)-2,6-diazaspiro[3.3]heptan-2-yl)-1H-benzo[d]imidazol-2-yl)benzene-1,2-diol] | 10 to 100 µM
COc1cc(-c2nc3cc(N4CCN(C(=O)c5cccc(Cl)c5)CC4)ccc3[nH]2)cc(O)c1O [Example 123, (3-chlorophenyl)(4-(2-(3,4-dihydroxy-5-methoxyphenyl)-1H-benzo[d]imidazol-5-yl)piperazin-1-yl)methanone] | 10 to 100 µM
COc1cccc(C(=O)N2CCN(c3ccc4[nH]c(-c5cc(O)c(O)c(OC)c5)nc4c3)CC2)c1 [Example 124, (4-(2-(3,4-dihydroxy-5-methoxyphenyl)-1H-benzo[d]imidazol-5-yl)piperazin-1-yl)(3-methoxyphenyl)methanone] | 1 to 10 µM
COc1cc(-c2nc3cc(N4CCN(C(=O)c5cc(C)cc(C)c5)CC4)ccc3[nH]2)cc(O)c1O [Example 125, (4-(2-(3,4-dihydroxy-5-methoxyphenyl)-1H-benzo[d]imidazol-5-yl)piperazin-1-yl)(3,5-dimethylphenyl)methanone] | > 100 µM
COc1cc(-c2nc3cc(N4CCN(C(=O)c5ccc(C(C)(C)C)cc5)CC4)ccc3[nH]2)cc(O)c1O [Example 126, (4-(tert-butyl)phenyl)(4-(2-(3,4-dihydroxy-5-methoxyphenyl)-1H-benzo[d]imidazol-5-yl)piperazin-1-yl)methanone] | > 100 µM
COc1cc(-c2nc3cc(N4CCN(C(=O)c5ccc(C(=O)O)cc5)CC4)ccc3[nH]2)cc(O)c1O [Example 127, 4-(4-(2-(3,4-dihydroxy-5-methoxyphenyl)-1H-benzo[d]imidazol-5-yl)piperazine-1-carbonyl)benzoic acid] | 10 to 100 µM
COc1cc(-c2nc3cc(N4CCN(C(=O)CCCCN)CC4)ccc3n2COCC[Si](C)(C)C)cc(O)c1O [Example 128, 5-amino-1-(4-(2-(3,4-dihydroxy-5-methoxyphenyl)-1-((2-(trimethylsilyl)ethoxy)methyl)-1H-benzo[d]imidazol-5-yl)piperazin-1-yl)pentan-1-one] | 10 to 100 µM
COc1cc(-c2nc3ccccc3n2C2COC2)c(C(F)(F)F)c(O)c1O [Example 130, 6-methoxy-4-(1-(oxetan-3-yl)-1H-benzo[d]imidazol-2-yl)-3-(trifluoromethyl)benzene-1,2-diol] | 10 to 100 µM
COc1cc(-c2nc3cc(N4CCN(c5ccncc5)CC4)ccc3[nH]2)cc(O)c1O [Example 131, 3-methoxy-5-(5-(4-(pyridin-4-yl)piperazin-1-yl)-1H-benzo[d]imidazol-2-yl)benzene-1,2-diol] | 10 to 100 µM
COc1cc(-c2nc3cc(N4CC5(CN(C(C)=O)C5)C4)ccc3[nH]2)cc(O)c1O [Example 132, 1-(6-(2-(3,4-dihydroxy-5-methoxyphenyl)-1H-benzo[d]imidazol-5-yl)-2,6-diazaspiro[3.3]heptan-2-yl)ethan-1-one] | 10 to 100 µM
COc1cc(-c2nc3cc(N4CCN(C(=O)c5ccccc5C(C)(C)C)CC4)ccc3[nH]2)cc(O)c1O [Example 133, (2-(tert-butyl)phenyl)(4-(2-(3,4-dihydroxy-5-methoxyphenyl)-1H-benzo[d]imidazol-5-yl)piperazin-1-yl)methanone] | > 100 µM
COc1cc(-c2nc3cc(N4CCN(C(=O)c5cccc(C(C)(C)C)c5)CC4)ccc3[nH]2)cc(O)c1O [Example 134, (3-(tert-butyl)phenyl)(4-(2-(3,4-dihydroxy-5-methoxyphenyl)-1H-benzo[d]imidazol-5-yl)piperazin-1-yl)methanone] | > 100 µM
COc1cc(-c2nc3cc(N4[C@@H]5CC[C@H]4CN(C(=O)c4ccccc4)C5)ccc3[nH]2)cc(O)c1O [Example 135, ((1R,5S)-8-(2-(3,4-dihydroxy-5-methoxyphenyl)-1H-benzo[d]imidazol-5-yl)-3,8-diazabicyclo[3.2.1]octan-3-yl)(phenyl)methanone] | 1 to 10 µM
COc1cc(-c2nc3cc(N4C[C@H]5CC[C@@H](C4)N5C(=O)c4ccccc4)ccc3[nH]2)cc(O)c1O [Example 136] | > 100 µM

Continued, values first:

IC50 | Compound
10 to 100 µM | O=C(O)c1ccc(-c2nc3cc(N4CCC4)ccc3[nH]2)cc1O [Example 114, 4-(5-(azetidin-1-yl)-1H-benzo[d]imidazol-2-yl)-2-hydroxybenzoic acid]
10 to 100 µM | O=C(O)c1cc(-c2nc3cc(N4CCC4)ccc3[nH]2)ccc1O [Example 115, 5-(5-(azetidin-1-yl)-1H-benzo[d]imidazol-2-yl)-2-hydroxybenzoic acid]
10 to 100 µM | CS(=O)(=O)N1CCN(c2ccc3[nH]c(-c4ccc(C(=O)O)c(O)c4)nc3c2)CC1 [Example 117, 2-hydroxy-4-(5-(4-(methylsulfonyl)piperazin-1-yl)-1H-benzo[d]imidazol-2-yl)benzoic acid]
10 to 100 µM | O=C(O)c1ccc(-c2nc3cc(N4CCN(C(=O)c5ccccc5)CC4)ccc3[nH]2)cc1O [Example 118, 4-(5-(4-benzoylpiperazin-1-yl)-1H-benzo[d]imidazol-2-yl)-2-hydroxybenzoic acid]
10 to 100 µM | O=C(O)c1ccc(-c2nc3cc(N4CCN(c5cccnc5)CC4)ccc3[nH]2)cc1O [Example 119, 2-hydroxy-4-(5-(4-(pyridin-3-yl)piperazin-1-yl)-1H-benzo[d]imidazol-2-yl)benzoic acid]
10 to 100 µM | O=C(O)c1cc(F)c(-c2nc3ccncc3[nH]2)cc1O [Example 120, 5-fluoro-2-hydroxy-4-(3H-imidazo[4,5-c]pyridin-2-yl)benzoic acid]
1 to 10 µM | O=C(O)c1ccc(-c2nc3cc(N4CCC4)ccc3[nH]2)c(F)c1O [Example 129, 4-(5-(azetidin-1-yl)-1H-benzo[d]imidazol-2-yl)-3-fluoro-2-hydroxybenzoic acid]
1 to 10 µM | COc1cc(-c2nc3cc(N4CCCC4)ccc3[nH]2)cc(O)c1O [Example 137, 3-methoxy-5-(5-(pyrrolidin-1-yl)-1H-benzo[d]imidazol-2-yl)benzene-1,2-diol]

Source: US20230234943A1, “TREX1 INHIBITORS AND USES THEREOF” (Tempest Therapeutics, Inc., priority 2020, published 2023)
